The record followed here is patent publication US11497751B2, “Modulators of Rho-associated protein kinase” (Redx Pharma PLC, priority 2018, dated 2022).

pIC50: −log10 of the molar value.

For the assay, the target named is T1, N-terminal 6His-tagged ROCK2 catalytic domain 11-552 (Homo sapiens, UniProt O75116).
T1 construct: N-terminal 6His-tagged ROCK2 catalytic domain 11-552; 6His (N); purchased Dundee University, UK; host or cells: baculovirus expression system
T1 sequence (O75116 11-552): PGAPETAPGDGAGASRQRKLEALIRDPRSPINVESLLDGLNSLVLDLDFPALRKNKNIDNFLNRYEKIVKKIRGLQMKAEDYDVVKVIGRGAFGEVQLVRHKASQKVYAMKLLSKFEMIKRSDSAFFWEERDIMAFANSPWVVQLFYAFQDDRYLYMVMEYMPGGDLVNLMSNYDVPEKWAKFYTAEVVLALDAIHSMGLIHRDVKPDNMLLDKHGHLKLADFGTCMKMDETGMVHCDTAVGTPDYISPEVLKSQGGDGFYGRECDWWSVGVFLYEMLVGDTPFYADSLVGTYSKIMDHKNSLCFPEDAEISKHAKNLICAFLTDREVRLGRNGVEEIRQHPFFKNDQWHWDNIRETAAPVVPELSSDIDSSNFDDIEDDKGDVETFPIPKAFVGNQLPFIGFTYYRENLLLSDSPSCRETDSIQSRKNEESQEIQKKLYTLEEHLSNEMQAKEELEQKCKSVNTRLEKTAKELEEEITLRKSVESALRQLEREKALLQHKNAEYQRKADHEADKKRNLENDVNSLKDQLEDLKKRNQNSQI
Kind of assay: ROCK2 binding activity: ROCK2 inhibition, ADP-Glo Kinase Assay. In kind it is biochemical. Conditions: 1.25 nM ROCK2, 100 μM long S6 peptide, 20 μM ATP; 1 hour pre-incubation; read-out: ADP-Glo kinase activity assay ROCK2 Category. The method in brief: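 1.25 nM baculovirus-expressed ROCK2 pre-incubated 1 h with compound (1% DMSO), then 100 μM long S6 peptide and 20 μM ATP added for 1 h; 50 mM HEPES pH 7.5, 10 mM Mg acetate, 1 mM DTT. ADP-Glo luminescence; IC50 from four-parameter logistic fit.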
For `CCNC(=O)c1ccc(-c2nc(Nc3ccc4[nH]ncc4c3)n(C)n2)c(C(F)(F)F)c1` [Example 408], the pIC50 is 5.52 to 6.52. `COCCn1nc(-c2ccc(C(=O)NC3CC3)cc2)nc1Nc1ccc2[nH]ncc2c1C1CC1` [Example 440]: the pIC50 was above 6.52. Regarding `CC(C)NC(=O)COc1ccc(-c2nc(Nc3ccc4[nH]ncc4c3)n(C)n2)cc1` [Example 470], the pIC50 was above 6.52. Then `COc1cc(-c2nc(Nc3ccc4[nH]ncc4c3C)n(CC(C)C)n2)ccc1C(=O)NCC(F)(F)F` [Example 455], with above 6.52; and `Cc1c(Nc2nc(-c3ccc(C(N)C(F)(F)F)cc3)nn2C)ccc2[nH]ncc12` (stereo not shown) [Example 422], with below 5.00. For the molecule `CC(C)NC(=O)N1CCc2cc(-c3nc(Nc4ccc5[nH]ncc5c4Cl)n(C)n3)ccc2C1` [Example 54], the pIC50 was above 6.52. With `CC(C)NC(=O)COc1ccc(-c2nc(Nc3ccc4[nH]ncc4c3Cl)n(C)n2)c(F)c1F` [Example 362], the pIC50 is above 6.52. In the case of `Cn1nc(-c2ccc3c(c2)CCN(C(=O)C2CC2)C3)nc1Nc1ccc2[nH]ncc2c1Cl` [Example 238], the pIC50 was above 6.52. Then `CC(C)NC(=O)COc1ccc(-c2nc(Nc3ccc4[nH]ncc4c3Cl)n(C)n2)cc1F` [Example 474], with above 6.52. As for `CCNC(=O)c1ccc(-c2nc(Nc3ccc4[nH]ncc4c3)n(C)n2)c(Cl)c1` [Example 327], the pIC50 is above 6.52. As for `Cn1nc(-c2ccc(C(N)C(F)(F)F)cc2)nc1Nc1ccc2[nH]ncc2c1C1CC1` (stereo not shown) [Example 384], the pIC50 is 5.52 to 6.52.

Consider `COC(=O)c1ccc(-c2nc(Nc3ccc4[nH]ncc4c3Cl)n(C)n2)cc1OC` [Example 118], for which the pIC50 was above 6.52. Regarding `c1ccc(COc2ccc(-c3nnc(Nc4ccc5[nH]ncc5c4)[nH]3)cc2)cc1` [Example 13], the pIC50 was 5.52 to 6.52. Turning to `CC(C)C(=O)NCCCOc1ccc(-c2nnc(Nc3ccc4[nH]ncc4c3)[nH]2)cc1` [Example 32], the pIC50 is above 6.52.

In the case of `Cn1nc(-c2ccc(Oc3ccccc3)cc2)nc1Nc1ccc2[nH]ncc2c1Cl` [Example 137], the pIC50 is 5.52 to 6.52. Turning to `Cn1nc(-c2ccc(C(=O)NCC3CCCO3)cc2)nc1Nc1ccc2[nH]ncc2c1Cl` (stereo not shown) [Example 106], the pIC50 is above 6.52.

Turning to `CCNC(=O)c1cc(F)c(-c2nc(Nc3ccc4[nH]ncc4c3Cl)n(C)n2)cc1F` [Example 360], the pIC50 is above 6.52. As to `CC(C)NC(=O)COc1ccc(-c2nnc(Nc3ccc4[nH]ncc4c3Cl)[nH]2)cc1` [Example 30], the pIC50 was above 6.52. For `Cn1nc(-c2ccc3c(c2)OCCO3)nc1Nc1ccc2[nH]ncc2c1Cl` [Example 72] the value was 5.52 to 6.52. For the molecule `CC(C)NC(=O)COc1ccc(-c2nnc(Nc3ccc4[nH]ncc4c3)[nH]2)cc1` [Example 7], the pIC50 was above 6.52.

`CC(C)NC(=O)CCn1cc(-c2nnc(Nc3ccc4[nH]ncc4c3)[nH]2)ccc1=O` [Example 35]: the pIC50 was 5.52 to 6.52. On to `CC(C)NC(=O)COc1ccc(-c2nc(Nc3ccc4[nH]ncc4c3)n(C)n2)cc1C#N` [Example 400], for which the pIC50 was above 6.52. With `C=C(C)c1c(Nc2nc(-c3ccc(C(=O)NCC(F)(F)F)cc3)nn2C)ccc2[nH]ncc12` [Example 458, 4-[5-[(4-isopropenyl-1H-indazol-5-yl)amino]-1-methyl-1,2,4-triazol-3-yl]-N-(2,2,2-trifluoroethyl)benzamide], the pIC50 was above 6.52. Take `CCNC(c1ccc(-c2nc(Nc3ccc4[nH]ncc4c3C3CC3)n(C)n2)cc1)C(F)(F)F` (stereo not shown) [Example 386]: the pIC50 was 5.52 to 6.52.

Take `Cn1nc(-c2cn[nH]c2)nc1Nc1ccc2[nH]ncc2c1Cl` [Example 111]: the pIC50 was 5.52 to 6.52.

As for `COc1cc(-c2nc(Nc3ccc4[nH]ncc4c3C)n(C)n2)ccc1C(=O)NC(C)C` [Example 179], the pIC50 was above 6.52. Then `COc1cc(-c2nc(Nc3ccc4[nH]ncc4c3Cl)n(C)n2)ccc1OCC(=O)NC(C)c1ccccn1` (stereo not shown) [Example 215], with above 6.52.

Turning to `COc1cc(-c2nc(Nc3ccc4[nH]ncc4c3Cl)n(C)n2)ccc1OCC(=O)NC(C)CO` (stereo not shown) [Example 208], the pIC50 is above 6.52. Turning to `Cn1nc(-c2cccc(N)c2)nc1Nc1ccc2[nH]ncc2c1Cl` [Example 132], the pIC50 was 5.52 to 6.52.

Consider `COCCn1nc(-c2ccc(OCC(=O)NC(C)C)c(OC)c2)nc1Nc1ccc2[nH]ncc2c1` [Example 447], for which the pIC50 was above 6.52. Then `CCNC(=O)c1c(F)cc(-c2nc(Nc3ccc4[nH]ncc4c3Cl)n(C)n2)cc1F` [Example 361], with 5.52 to 6.52; and `CC(C)NC(=O)COc1ccc(-c2nc(Nc3ccc4[nH]ncc4c3)n[nH]2)cc1F` [Example 12, 2-[2-fluoro-4-[5-(1H-indazol-5-ylamino)-4H-1,2,4-triazol-3-yl]phenoxy]-N-isopropyl-acetamide], with above 6.52. Then `COCCOc1cccc(-c2nc(Nc3ccc4[nH]ncc4c3Cl)n(C)n2)c1` [Example 85], with above 6.52; and `COc1cc(-c2nc(Nc3ccc4[nH]ncc4c3Cl)n(C)n2)ccc1C(=O)N1CC(CO)(CO)C1` [Example 173], with 5.00 to 5.52. Consider `CN1CC(NC(=O)c2ccc(-c3nc(Nc4ccc5[nH]ncc5c4Cl)n(C)n3)cc2Cl)C1` [Example 259], for which the pIC50 is 5.00 to 5.52.

Consider `CCc1c(Nc2nc(-c3ccc(C(=O)NCC(C)(C)C)cc3)nn2C)ccc2[nH]ncc12` [Example 321], for which the pIC50 was above 6.52. In the case of `COc1cc(-c2nc(Nc3ccc4[nH]ncc4c3Cl)n(C)n2)ccc1C(=O)NC(C)C` [Example 193, 4-[5-[(4-chloro-1H-indazol-5-yl)amino]-1-methyl-1,2,4-triazol-3-yl]-N-isopropyl-2-methoxy-benzamide], the pIC50 was above 6.52. In the case of `CCc1c(Nc2nc(-c3ccc(C(=O)NC4CC4)c(OC)c3)nn2C)ccc2[nH]ncc12` [Example 252, N-cyclopropyl-4-[5-[(4-ethyl-1H-indazol-5-yl)amino]-1-methyl-1,2,4-triazol-3-yl]-2-methoxy-benzamide], the pIC50 is above 6.52. Turning to `CCc1c(Nc2nc(-c3ccc(C(=O)NCC(F)(F)F)c(OC)c3)nn2C)ccc2[nH]ncc12` [Example 316], the pIC50 is above 6.52. On to `CN1CCc2cc(-c3nc(Nc4ccc5[nH]ncc5c4)n(C)n3)ccc2C1` [Example 414], for which the pIC50 is 5.00 to 5.52. For `COc1cc(-c2nc(Nc3ccc4[nH]ncc4c3Cl)n(C)n2)ccc1C(=O)NC1CCN(CC(F)(F)F)C1` (stereo not shown) [Example 363] the value was above 6.52.

`COc1cc(-c2nc(Nc3ccc4[nH]ncc4c3Cl)n(C)n2)ccc1C(=O)NC(C)(C)C` [Example 175]: the pIC50 is above 6.52. As to `CCNC(=O)c1ccc(-c2nc(Nc3ccc4[nH]ncc4c3Cl)n(C)n2)cn1` [Example 370], the pIC50 was above 6.52.

On to `CCNC(=O)c1ccc(-c2nc(Nc3ccc4[nH]ncc4c3)n(C)n2)cc1` [Example 324], for which the pIC50 was above 6.52. On to `COc1cc(-c2nc(Nc3ccc4[nH]ncc4c3C3CC3)n(C)n2)ccc1C(=O)NCC(F)(F)F` [Example 280], for which the pIC50 was above 6.52. As to `COc1cc(-c2nc(Nc3ccc4[nH]ncc4c3)n(C)n2)ccc1C(=O)NCC(F)(F)F` [Example 240, 4-[5-(1H-indazol-5-ylamino)-1-methyl-1,2,4-triazol-3-yl]-2-methoxy-N-(2,2,2-trifluoroethyl)benzamide], the pIC50 was above 6.52. For `COc1cc(-c2nc(Nc3ccc4[nH]ncc4c3C)n(C)n2)ccc1C(=O)NC(C)(C)C` [Example 181], the pIC50 was above 6.52. In the case of `Cn1nc(-c2ccc3c(c2)OCCC3=O)nc1Nc1ccc2[nH]ncc2c1Cl` [Example 66], the pIC50 was above 6.52.

Turning to `Cn1nc(-c2ccc(CN)c(F)c2)nc1Nc1ccc2[nH]ncc2c1Cl` [Example 128], the pIC50 is above 6.52. For `COc1cc(-c2nc(Nc3ccc4[nH]ncc4c3Cl)n(C)n2)ccc1OCC(=O)NC(C)(C)CO` [Example 205] the value was above 6.52; for `COc1cc(-c2nc(Nc3ccc4[nH]ncc4c3Cl)n(C)n2)ccc1C(=O)NC1(CO)CC1` [Example 198], above 6.52. As to `CC(C)NC(=O)COc1ccc(-c2nc(Nc3ccc4[nH]ncc4c3Cl)n(C)n2)cc1N1CCOCC1` [Example 52], the pIC50 was 5.52 to 6.52. Regarding `CCNC(=O)c1ccc(-c2nc(Nc3ccc4[nH]ncc4c3Cl)n(C)n2)c(C)c1` [Example 262], the pIC50 is above 6.52. For `COc1ccc(-c2nc(Nc3ccc4[nH]ncc4c3Cl)n(C)n2)c(F)c1` [Example 104], the pIC50 was above 6.52. As to `CCNC(=O)c1ccc(-c2nc(Nc3ccc4[nH]ncc4c3Cl)n(C)n2)c(F)c1` [Example 356], the pIC50 was above 6.52. In the case of `COc1cc(-c2nc(Nc3ccc4[nH]ncc4c3Cl)n(-c3ccncc3)n2)ccc1OCC(=O)NC(C)C` [Example 152], the pIC50 was above 6.52. For the molecule `NCCCOc1ccc(-c2nnc(Nc3ccc4[nH]ncc4c3)[nH]2)cc1` [Example 22], the pIC50 is 5.52 to 6.52. Take `CC(C)NC(=O)COc1c(F)cc(-c2nc(Nc3ccc4[nH]ncc4c3)n(C)n2)cc1F` [Example 415]: the pIC50 was above 6.52.

Take `O=C(COc1ccc(-c2nnc(Nc3ccc4[nH]ncc4c3)[nH]2)cc1)NC1CCNC1` (stereo not shown) [Example 156]: the pIC50 is above 6.52. For the molecule `Cc1cc(OCC(=O)NC(C)C)ccc1-c1nc(Nc2ccc3[nH]ncc3c2Cl)n(C)n1` [Example 354], the pIC50 is above 6.52. As for `Cn1nc(C2=CCCNC2)nc1Nc1ccc2[nH]ncc2c1Cl` [Example 81], the pIC50 is 5.00 to 5.52.

For the molecule `COc1cc(-c2nc(Nc3ccc4[nH]ncc4c3C3CC3)n(C)n2)ccc1C(=O)NC1CCN(CC(F)(F)F)C1` (stereo not shown) [Example 376], the pIC50 was above 6.52. As to `COc1cc(-c2nc(Nc3ccc4[nH]ncc4c3)n(C)n2)ccc1C(=O)NC(C)(C)C` [Example 170], the pIC50 is above 6.52.

Take `CC(C)C(=O)NCCOc1ccc(-c2nnc(Nc3ccc4[nH]ncc4c3)[nH]2)cc1` [Example 23]: the pIC50 was 5.52 to 6.52.
